These are literature values, as cited in patent US8795652B1, “Methods and compositions to treat myocardial conditions” (Abbott Cardiovascular Systems Inc., priority 2003, dated 2014).

SMILES strings stand for the structures.

Turning to `FC(F)(F)C(F)(F)C(F)(F)C(F)(F)CCC(F)(F)C(F)(F)C(F)(F)C(F)(F)F` [F-44E, 1,2-bis(perfluorobutyl)ethane], the “O2 solubility at 37° C.” value is 50 V %.
For `FC1(F)C(F)(F)C(F)(F)C2(F)C(F)(F)C(F)(F)C(F)(F)C(F)(F)C2(F)C1(F)F` (stereo not shown) [FDC, Perfluorodecalin], the “O2 solubility at 37° C.” value is on record as 45 V %.
For the molecule `CCCCC[C@H](O)/C=C/[C@H]1[C@H](O)CC(=O)[C@@H]1C/C=C\CCCC(=O)O` [PGE2, prostaglandin E2], in the data set with ductus arteriosus (four neonates, infused prior to and during surgery), the arterial oxygen saturation result was “immediate and persistent rise”. The side effects result in the data set with ductus arteriosus (in vivo) is listed as “No major side effects occurred, except for pyrexia in two infants”.
